The source of these data is PubChem BioAssay AID1117350 (Cheminformatics & Chemogenomics Research Group (CCRG), …, 2015).

For orientation: IC50 means the concentration that inhibits the measured activity by half.

Several values for one entry are separate records, joined by “and”; a condition that tells them apart may be missing. Identical values can stand only once. Activity calls are given as the source filed them. The rule behind the calls is not given here.

The test system of the experiment is HeLa, chromatin condensation phenotype imaging. Briefly: condensed chromatin phenotype in HeLa cells – imaging, IC50, dose response (AID 1117350).
In the case of `CCC(COC(=O)c1cc(OC)c(OC)c(OC)c1)(c1ccccc1)N(C)C` (stereo unspecified), the IC50 is > 10 µM (inactive). The result for `CC(CC1c2ccccc2CCc2ccccc21)CN(C)C` (stereo unspecified) reads > 10 µM (inactive); that for `CCc1nc(N)nc(N)c1-c1ccc(Cl)cc1`, > 10 µM (inactive); that for `Oc1c(I)cc(I)c2cccnc12`, > 10 µM (inactive). As to `Cc1nc(N)nc(N)c1-c1ccc(Cl)c(Cl)c1`, the IC50 was > 10 µM (inactive). With `O[C@@H](CNC[C@H](O)[C@H]1CCc2cc(F)ccc2O1)[C@@H]1CCc2cc(F)ccc2O1`, the IC50 is > 10 µM (inactive). Then `[O-][n+]1ccccc1SSc1cccc[n+]1[O-]`, with 2.23 µM; and `O=C(NOCC1CC1)c1ccc(F)c(F)c1Nc1ccc(I)cc1Cl`, with > 10 µM (inactive). Take `C=CC(=O)Nc1cc2c(Nc3ccc(F)c(Cl)c3)ncnc2cc1OCCCN1CCOCC1`: the 50% inhibitory concentration (IC50) was 4.29 µM.

Turning to `CC[C@@]1(O)C(=O)OCc2c1cc1n(c2=O)Cc2c-1nc1ccccc1c2/C=N/OC(C)(C)C`, the IC50 was > 10 µM (inactive). The result for `CN(C)/N=N/c1nc[nH]c1C(N)=O` reads > 10 µM (inactive). The result for `CCN1/C(=C/C=C/c2sc3ccccc3[n+]2CC)Sc2ccccc21` reads 4.48 µM; that for `CC[C@H]1CN2CCc3cc(OC)c(OC)cc3[C@@H]2C[C@@H]1C[C@H]1NCCc2cc(OC)c(OC)cc21`, 0.948 µM. The result for `CC(=O)[C@]1(O)Cc2c(O)c3c(c(O)c2[C@@H](O[C@H]2C[C@H](N)[C@H](O)[C@H](C)O2)C1)C(=O)c1ccccc1C3=O` reads 0.659 µM; that for `O=C(O)CCCc1ccc(N(CCCl)CCCl)cc1`, > 10 µM (inactive). On to `O=C(O)CCc1nc2ccccc2[nH]1`, for which the IC50 was > 10 µM (inactive). Then `N[C@@H](Cc1ccc(N(CCCl)CCCl)cc1)C(=O)O`, with > 10 µM (inactive); and `CCN(CC)CCOc1ccc(C(O)(Cc2ccc(Cl)cc2)c2ccc(C)cc2)cc1` (stereo unspecified), with > 10 µM (inactive). The result for `CCCCC(CC)CN=C(N)NC(N)=NCCCCCCN=C(N)NC(N)=NCC(CC)CCCC` (stereo unspecified) reads > 10 µM (inactive). The result for `CN(C)CCOC(c1ccccc1)c1ccc(Br)cc1` (stereo unspecified) reads > 10 µM (inactive); that for `O=C(CCl)c1ccc(Cl)cc1Cl`, 0.541 µM; that for `O=C(O)c1ccc(-n2nc(-c3ccccc3O)nc2-c2ccccc2O)cc1`, > 10 µM (inactive).

As for `CCN(CC)CCOc1ccccc1C(=O)CCc1ccccc1`, the IC50 was > 10 µM (inactive). For `CCCCCCCCCCCCNCCNCCNCC(=O)O`, the IC50 was > 10 µM (inactive). Take `COC(=O)c1nc(Cl)c(Cl)nc1N`: the IC50 was 0.868 µM. Consider `Cc1ccc(Nc2nccc(N(C)c3ccc4c(C)n(C)nc4c3)n2)cc1S(N)(=O)=O`, for which the IC50 was > 10 µM (inactive). The result for `CC(C)C[C@H](NC(=O)[C@H](CCc1ccccc1)NC(=O)CN1CCOCC1)C(=O)N[C@@H](Cc1ccccc1)C(=O)N[C@@H](CC(C)C)C(=O)[C@@]1(C)CO1` reads > 10 µM (inactive); that for `Cc1ccccc1C(=O)Nc1ccc(C(=O)N2CCCC(N(C)C)c3ccccc32)cc1` (stereo unspecified), 3.41 µM; that for `COC(=O)Nc1nc2ccc(C(=O)c3cccs3)cc2[nH]1`, 0.0134 µM.

As to `CCN(CC)CCNC(=O)c1c(C)[nH]c(/C=C2\C(=O)Nc3ccc(F)cc32)c1C`, the IC50 was 3.81 µM. Then `COc1cc(-c2ccc(=O)[nH]n2)ccc1OC(F)F`, with > 10 µM (inactive). The result for `COc1cccc2c1C(=O)c1c(O)c3c(c(O)c1C2=O)C[C@@](O)(C(C)=O)C[C@@H]3O[C@H]1C[C@H](N)[C@H](O)[C@H](C)O1` reads 0.374 µM; that for `Cc1ccc(S(=O)(=O)NC(=O)NN2CC3CCCC3C2)cc1` (stereo unspecified), > 10 µM (inactive); that for `COC(=O)Nc1nc2ccc(C(=O)C3CC3)cc2[nH]1`, 0.402 µM.

Take `CCCCCCCCCCOCC(O)CN` (stereo unspecified): the IC50 is > 10 µM (inactive). Then `C[n+]1c2cc(N)ccc2cc2ccc(N)cc21` (tested in a mixture with another compound), with 2.19 µM; and `CCCCCCCCCCCCCCCC[N+](C)(C)CCN(Cc1ccc(OC)cc1)c1ncccn1`, with > 10 µM (inactive). Then `CCCN(CCC)C(=O)C(CCC(=O)OCCCN1CCN(CCOC(=O)Cc2c(C)n(C(=O)c3ccc(Cl)cc3)c3ccc(OC)cc23)CC1)NC(=O)c1ccccc1` (stereo unspecified), with > 10 µM (inactive); and `CCCSc1ccc2nc(NC(=O)OC)[nH]c2c1`, with 0.0615 µM; and `CCCCCCCCCCCCCCCCCCNC(=O)OC1CCN(C(=O)OC[C@H](COC(=O)N(Cc2cccc[n+]2CC)C(=O)c2ccccc2OC)OC)CC1`, with > 10 µM (inactive). Take `Nc1nc(F)nc2c1ncn2[C@@H]1O[C@H](CO)[C@@H](O)[C@@H]1O`: the IC50 was > 10 µM (inactive). The result for `Nc1nc(Cl)nc2c1ncn2[C@@H]1O[C@H](CO)[C@@H](O)[C@@H]1F` reads > 10 µM (inactive); that for `COC(=O)Nc1nc2ccc(S(=O)c3ccccc3)cc2[nH]1` (stereo unspecified), 0.241 µM; that for `Oc1c(I)cc(Cl)c2cccnc12`, > 10 µM (inactive). As for `CC(=O)Nc1ccn(C2COC(COC(=O)c3ccccc3)O2)c(=O)n1` (stereo unspecified), the IC50 was > 10 µM (inactive). Then `CCC(=O)c1ccc(O)cc1`, with > 10 µM (inactive); and `Cc1ccc([N+](=O)[O-])[c]2c1[O][Hg]2`, with 1.22 µM. For the compound `CCCCc1ccc2nc(NC(=O)OC)[nH]c2c1`, the IC50 is 0.00717 µM. With `Oc1c(Cl)cc(Cl)c2cccnc12`, the IC50 was > 10 µM (inactive). The result for `CCCCCCCCCCCCCC[N+](C)(C)C` reads > 10 µM (inactive). Consider `O=C(CCBr)N1CCN(C(=O)CCBr)CC1`, for which the IC50 is > 10 µM (inactive). On to `O=c1[nH]cc(F)c(=O)[nH]1`, for which the IC50 was > 10 µM (inactive). In the case of `CCN(CC)CCNc1ccc(CO)c2sc3ccccc3c(=O)c12`, the IC50 is > 10 µM (inactive). Then `CCCOc1ccc2nc(NC(=O)OC)[nH]c2c1`, with 0.0775 µM; and `CC[C@H](C)C(=O)O[C@H]1C[C@@H](C)C=C2C=C[C@H](C)[C@H](CC[C@@H]3C[C@@H](O)CC(=O)O3)[C@H]21`, with > 10 µM (inactive).

As for `COc1cccc2c1C(=O)c1c(O)c3c(c(O)c1C2=O)C[C@@](O)(C(=O)CO)CC3OC1CC(N2CCOC(OC)C2)C(O)C(C)O1` (stereo partly specified), the IC50 is 0.0118 µM.

On to `CC(=O)N(O)CCCCCNC(=O)CCC(=O)N(O)CCCCCNC(=O)CCC(=O)N(O)CCCCCN`, for which the IC50 is > 10 µM (inactive). The result for `CC(C)(C)C(=O)OCOP(=O)(COCCn1cnc2c(N)ncnc21)OCOC(=O)C(C)(C)C` reads > 10 µM (inactive). The result for `C=C(C)[C@H]1Cc2c(ccc3c2O[C@@H]2COc4cc(OC)c(OC)cc4[C@@H]2C3=O)O1` reads 0.223 µM; that for `Nc1nc(=O)n([C@@H]2O[C@H](CO)[C@@H](O)[C@@H]2F)cc1I`, > 10 µM (inactive).

Take `O=c1c(-c2ccccc2)c1-c1ccccc1`: the IC50 is > 10 µM (inactive).

Consider `Clc1ccccc1C(c1ccccc1)(c1ccccc1)n1ccnc1`, for which the IC50 is > 10 µM (inactive). The result for `S=c1nc[nH]c2nc[nH]c12` reads > 10 µM (inactive); that for `O=C(O)CN(CCN(CC(=O)O)CC(=O)O)CCN(CC(=O)O)CC(=O)O`, > 10 µM (inactive); that for `CC(C)=CCNc1ncnc2c1ncn2[C@@H]1O[C@H](CO)[C@@H](O)[C@H]1O`, > 10 µM (inactive). The result for `Cc1cc(=O)c2c(O)c3c(O)cc(=O)c4c3c3c(cc(O)c1c23)C(C)(C)C=4O` reads > 10 µM (inactive); that for `COC(=O)Nc1nc2ccc(Sc3ccccc3)cc2[nH]1`, 0.228 µM. With `Nc1ccc2cc3ccc(N)cc3nc2c1`, the half-inhibitory concentration (IC50) is 2.47 µM. The result for `Fc1ccc(C(OCCN2CCN(CCCc3ccccc3)CC2)c2ccc(F)cc2)cc1` reads > 10 µM (inactive); that for `COC(=O)Nc1nc2ccc(C(=O)c3ccccc3)cc2[nH]1`, 0.0648 µM; that for `CN1CCCC(CC2c3ccccc3Sc3ccccc32)C1` (stereo unspecified), > 10 µM (inactive). The result for `COc1cccc2c1C(=O)c1c(O)c3c(c(O)c1C2=O)C[C@@](O)(C(=O)CO)C[C@@H]3O[C@H]1C[C@H](N)[C@H](O[C@@H]2CCCCO2)[C@H](C)O1` reads > 10 µM (inactive). On to `COc1cc(NC(C)CCCN)c2ncccc2c1` (stereo unspecified), for which the IC50 is > 10 µM (inactive). Then `C[C@@H]1C[C@@H]([C@H](O)CC2CC(=O)NC(=O)C2)C(=O)[C@@H](C)C1`, with > 10 µM (inactive); and `CCOc1ccc2nc3cc(N)ccc3c(N)c2c1`, with > 10 µM (inactive).

Turning to `CC[C@@]1(O)C(=O)OCc2c1cc1n(c2=O)Cc2cc3c(CN(C)C)c(O)ccc3nc2-1`, the IC50 was > 10 µM (inactive). Then `CO[C@@]12[C@H](COC(N)=O)C3=C(C(=O)C(C)=C(N)C3=O)N1C[C@@H]1N[C@@H]12`, with > 10 µM (inactive). On to `O=C(Nc1ccc([N+](=O)[O-])cc1Cl)c1cc(Cl)ccc1O`, for which the IC50 was > 10 µM (inactive). The result for `CN(C)CCC=C1c2ccccc2CCc2ccccc21` reads > 10 µM (inactive); that for `CCCCCCCCCCCC[N+](C)(C)Cc1ccccc1`, > 10 µM (inactive). For `NCCNc1ccc(NCCN)c2c1C(=O)c1ccncc1C2=O`, the IC50 is > 10 µM (inactive). Take `COc1ccc(-c2ccc3cc(C(=O)O)ccc3c2)cc1C12CC3CC(CC(C3)C1)C2`: the IC50 is > 10 µM (inactive). Then `CC(C)(C)C1CCC(CC2=C(O)c3ccccc3C(=O)C2=O)CC1` (stereo unspecified), with > 10 µM (inactive).

Regarding `CC[C@]1(O)C[C@@H]2CN(CCc3c([nH]c4ccccc34)[C@@](C(=O)OC)(c3cc4c(cc3OC)N(C)[C@H]3[C@@](O)(C(=O)OC)[C@H](OC(C)=O)[C@]5(CC)C=CCN6CC[C@]43[C@@H]65)C2)C1`, the concentration for half-maximal inhibition (IC50) was 0.00452 µM and 0.0032 µM. The result for `CCCCCCC[N+](CC)(CC)CCCCc1ccc(Cl)cc1` reads > 10 µM (inactive). Then `CC[C@@H]([C@H](C)O)n1ncn(-c2ccc(N3CCN(c4ccc(OC[C@@H]5CO[C@@](Cn6cncn6)(c6ccc(F)cc6F)C5)cc4)CC3)cc2)c1=O`, with > 10 µM (inactive).
